Entries after “also recorded” stand apart in the source; their conditions may differ.
Experiments:
AT2 organoids = assay: AT2 organoid proliferation with niche factors and PORCUPINE inhibitor
Protocol: Screening exogenous growth factors in organoid culture. Distal airway cells were isolated and plated as above with the following exceptions: ADMEM/F12 was used instead of organoid medium during elastase digestion of lung tissue, cells were serially diluted and filtered through a 40 micron cell strainer and counted with a hemocytometer. 1000 viable epithelial cells (by Trypan blue exclusion, size, and morphology) per μL ECM were plated per 5 μL Matrigel droplet per well. Base media consisted of organoid media lacking A83-01, EGF, NOGGIN, WNT3A or RSPO1. EGF (final 50 ng/ml, R&D), NOGGIN (final 100 ng/ml, R&D), WNT3A (final 100 ng/ml, R&D), RSPO1 (final 500 ng/ml, Peprotech) or the PORCUPINE inhibitor C59 (final 1μM, Biogems) were added singly or in combination to base media. Images were obtained ten days after primary plating with an inverted light microscope at 5X magnification. Each condition was plated in quadruplicate and organoid formation was quantified using the analyze particle (threshold=4902 pixels) plugin in ImageJ as previously described.

basal organoids = assay: Growth factor evaluation for basal organoids after sedimentation and clonogenic culture; format: cell-based, human; set-up: basal organoid growth: dose or concentration left out as unconfirmed
Text: (§1) Screening exogenous growth factors in organoid culture.
Density sedimentation of basal cells. Organoid cultures within 2-3 weeks of primary plating were dissociated with 1 U/ml neutral protease (Worthington, Cat LS02100) and 100 KU of DNase I in organoid media. Basal organoids were then collected by gravity sedimentation and the supernatant was either aspirated or collected for downstream use. Basal organoids were then further fractionated on a custom Ficoll-Paque gradient (4 vol Ficoll-Paque to 1 vol PBS) and centrifuged at 300×g for 10 minutes at room temperature. The supernatant was aspirated and the organoid pellet was resuspended in 10 ml PBS in a 15 ml conical tube, collected by gravity sedimentation, and plated into ECM as described above.

TNFRSF12A^hi basal cells [1] = conditions: NOTCH inhibition
Protocol: Quantitation of SCGB1A1 and SFTPC mRNA expression in TNFRSF12A^hi basal cells. FACS-isolated basal cells cultured in the above conditions were fixed in 2% paraformaldehyde in PBS for one hour at room temperature, embedded in HistoGel (Thermo Fisher HG-4000-012), dehydrated and paraffin embedded en bloc. One hundred serial sections were obtained at 10 micron thickness, and immunocytochemistry and in situ hybridization were performed at each 100 micron level. Confocal images were acquired in a blinded manner and organoids were defined as a cluster of 3 or greater DAPI nuclei. Channels were acquired using identical parameters for DAPI, Alexa 488 (SFTPC RNA in situ hybridization), Texas Red (SCGB1A1 RNA in situ hybridization), and Alexa 647 (KRTS immunostaining). Z-stacks were collected and images were processed in ImageJ and maximum intensity Z projections were used to quantitate SCGB1A1 and SFTPC RNA in situ in Cell Profiler using the RNA Proximity Ligase Assay counting pipeline.

TNFRSF12A^hi basal cells [2] = conditions: basal organoids from FACS-purified TNFRSF12A^hi EPCAM+ITGA6+ITGB4+ cells, 14 days culture
Protocol: NOTCH manipulation in TNFRSF12A^hi basal cells. TNFRSF12A^hi basal cells were isolated and cultured as above. 24 hours after plating, media was changed to lung organoid media with either vehicle (0.1% DMSO), 1 μg/ml JAG1 peptide (Anaspec), 500 nM soluble recombinant NOTCH receptor inhibitor Delta Like Ligand 4 mutant (DLL4E12), or 1 μM gamma secretase inhibitor DBZ (Tocris). After 14 days of culture, biochemical estimation of proliferation was carried out by resazurin reduction assay (Alamar Blue, Thermo Fisher) for 16 hours according to manufacturer's protocol and resazurin reduction was measured via fluorescence readout on a Biotek Synergy H1 plate reader according to the manufacturer's protocol. Reference blank consisted of Alamar Blue reagent incubated in parallel media without cells.

[3] = system: PR8 strain of H1N1 modified to express GFP; assay: microbe, parasite or virus in culture; format: cell-based, influenza H1N1 (in human distal lung organoids)
[4] = system: human distal lung organoids; assay: Screening exogenous growth factors in distal lung organoid culture; format: cell-based; conditions: single cell suspensions of distal lung, feeder-free; EGF and NOGGIN in combination
Text: as §1

Question: What does the source list for `Cc1cc(-c2ccc(CC(=O)Nc3ccc(-c4cccnc4)cc3)cc2)ccn1` [C59, reference compound]?
Answer: AT2 organoid growth (AT2 organoids; PORCUPINE inhibitor C59 (1 μM)): attenuated AT2 organoid growth; basal organoid growth (basal organoids; after d14 sedimentation, clonogenic culture, C59): growth was not significantly inhibited; also recorded: Growth was not affected

Question: Which results are given for `C[C@H](NC(=O)Cc1cc(F)cc(F)c1)C(=O)N[C@@H]1C(=O)N(C)c2ccccc2-c2ccccc21` [DBZ]?
Answer: SFTPC mRNA expression (TNFRSF12A^hi basal cells [1]): upregulating SFTPC mRNA; proliferation (resazurin dye reduction) (TNFRSF12A^hi basal cells [2]): significantly increased proliferation

Question: What does the source list for `Nc1ccn([C@@H]2O[C@H](CO)[C@@H](O)[C@H]2F)c(=O)n1` [FdC, 2′-deoxy-2′-fluorocytidine]?
Answer: inhibition of H1N1 viral infection or replication (GFP attenuation) [3]: efficacious with EC50 consistent with previous reports; IC50 ([3]; Influenza A virus, read-out: IC50 on influenza infectivity and replication (dose response curve)): 0.34 µM

Question: Which results are given for `CC(=O)N[C@H]1[C@H]([C@H](O)[C@H](O)CO)OC(C(=O)O)=C[C@@H]1N=C(N)N` [zanamivir]?
Answer: IC50 on influenza infectivity and replication (dose response curve) [3]: did not exhibit a dose response curve; inhibition of H1N1 viral infection or replication (GFP attenuation) [3]: did not inhibit H1N1 viral infection or replication

Question: “EGF: recombinant human EGF (R&D Systems)” was tested. Which “distal lung organoid growth with exogenous growth factors” value [4] did it give?
Answer: Its value is “optimal”.

Question: And the “clonal AT2 organoid proliferation with exogenous growth factors” value (AT2 organoids; EGF and NOGGIN together, WNT-3A and RSPONDIN-1 added exogenously)?
Answer: The value was “sufficient for clonal AT2 organoid proliferation”.

Question: What about the “basal organoid growth with exogenous growth factors” value (basal organoids; pure basal cell cultures, EGF and Noggin together) of the same molecule?
Answer: The value was “sufficient for maximal growth”.

Reference: patent US20230257716A1 (priority 2020, published 2023)
